Patent US20140303092A1 (CHIMERIX, INC., priority 2011, published 2014)

Assay: Study HDP-CDV-201: safety and tolerability (adverse events, laboratory abnormalities, discontinuations)
Assay type: in vivo, human (adult allogeneic HSCT recipients)
Protocol: Clinical Studies of HDP-CDV were performed and described in detail in the following Examples. For example, HDP-CDV-201 is a placebo-controlled, dose-escalating trial in HSCT CMV (R+) recipients, evaluating the ability of HDP-CDV to prevent or control CMV infection was carried out. Five cohorts were established in which participants or subjects received either placebo or the HDP-CDV orally, in doses ranging from 40 mg weekly (QW) to 200 mg twice weekly (BIW). Subjects who were post-HSCT were enrolled at the time of engraftment and randomized to HDP-CDV or placebo (3 to 1 ratio) and received blinded therapy until approximately 100 day post-transplantation. HDP-CDV doses were 40 mg QW, 100 mg QW, 200 mg QW, 200 mg BIW and 100 mg BIW. Escalation to the next dose was decided by the data monitoring committee after review of the safety data from the previous Cohort. Subjects who developed CMV disease or CMV infection requiring pre-emptive therapy with local standard of care were discontinued from blinded therapy and followed for 4 weeks. Subjects who completed treatment with blinded therapy were followed for 8 weeks post-therapy.
Data from Study HDP-CDV-201 also provided characterization of the safety and tolerability profile of HDP-CDV when administered for the prevention or control of CMV infection in high risk (R^+) post-HSCT adult subjects.
The Safety population (SAFETY) included all randomized subjects who took at least one dose of study treatment. This population was used to summarize safety outcomes based on the treatment actually received, in cases where a subject was treated contrary to the randomization schedule.
The safety and tolerability profile of HDP-CDV, including subject demographics and Baseline characteristics; the AE profile; and laboratory abnormalities of interest were analyzed in the cohorts followed in this investigation.
Subjects completing the treatment period received a full course of study medication; those completing the entire study attended visits through 8 weeks of follow up. Subjects who discontinued treatment may have done so for protocol specified reasons (e.g. development of clinically significant CMV infection requiring preemptive treatment with excluded anti-CMV medications) or for other reasons (e.g., withdrawal, adverse events, loss to follow-up). The disposition of subjects in Study HDP-CDV-201 during the double-blind, placebo-controlled treatment period (through Week 11) is listed by dosing Cohort in TABLE 23.
Adverse events were examined by severity to ensure that all safety signals were identified in this study population. Because of the frequency of events in HSCT recipients, particular attention was given to evaluation of Grade 3 […], 4 (severe), and 5 (fatal) adverse events.
Only those preferred terms for which at least one Grade 3 or higher event was experienced in any treatment group are listed. Cytomegalovirus-related AEs are excluded from this analysis.
HDP-CDV is a lipid conjugate of CDV. Because CDV is known to have adverse effects on renal function and bone marrow, decreased GFR and persistent neutropenia were identified as AEs of special interest. Key renal and hematological (TABLE 30) laboratory parameters were measured and listed below by Study HDP-CDV-201 treatment groups. TABLE 30 includes abnormal levels of serum creatinine, neutrophils, platelets, WBCs, and hemoglobin and includes data at Screening and during the treatment period.
A common metric for unit based dosing of medications is by weight (mg/kg). When the distribution of weights was examined for all subjects participating in the study, the median was 78 kg and the lower 25th percentile weight was approximately 65 kg, which translates to a cut-off of ˜3 mg/kg for a 200 mg total weekly dose. Based upon this approach, a cut-off of 3 mg/kg was used to assess the frequency of diarrhea and associated GI AEs reported for the subjects in Cohorts 3 or 4a (TABLE 40).

[1] = Cohort 4, 200 mg BIW, through Week 11

CCCCCCCCCCCCCCCCOCCCOP(=O)(O)COC(CO)Cn1ccc(N)nc1=O (stereo not drawn) [HDP-CDV]
3: Grade of hepatobiliary AE acute liver injury, subject 4008 (Cohort 4, drug withdrawn)
1 (2.2%): ALT (Screening) >3 × ULN-5 × ULN, subjects (Cohort 4A, 100 mg BIW) | ALT (Screening) >5 × ULN-10 × ULN, subjects (Cohort 4A, 100 mg BIW) | ALT (Screening) >10 × ULN-20 × ULN, subjects (Cohort 4A, 100 mg BIW) | AST (Screening) >3 × ULN-5 × ULN, subjects (Cohort 4A, 100 mg BIW) | AST (Screening) >5 × ULN-10 × ULN, subjects (Cohort 4A, 100 mg BIW) | AST (Screening) >10 × ULN-20 × ULN, subjects (Cohort 4A, 100 mg BIW)
recovered/resolved: Outcome of hepatobiliary AE hyperbilirubinemia, subject 4042 (Cohort 4, drug interrupted) | Outcome of hepatobiliary AE acute liver injury, subject 4008 (Cohort 4, drug withdrawn)
4 (13.3%) n (%): TEAE Neutropenia (Cohort 4, 200 mg BIW, N = 30)
1 (3.3%) n (%): TEAE Arthralgias (Cohort 4, 200 mg BIW, N = 30) | TEAE Oral Candidiasis (Cohort 4, 200 mg BIW, N = 30) | TEAE Pneumonia (Cohort 4, 200 mg BIW, N = 30) | TEAE Staphylococcal Bacteremia (Cohort 4, 200 mg BIW, N = 30)
5 (10.0%): GI AEs Leading to Study Drug Discontinuation: Total subjects discontinued (Cohort 4A, 100 mg BIW)
1 (2.0%): ALT (any time during therapy) >10 × ULN-20 × ULN, subjects (Cohort 4A, 100 mg BIW) | ALT (any time during therapy) >20 × ULN, subjects (Cohort 4A, 100 mg BIW) | GI AE Leading to Study Drug Discontinuation: Abdominal pain, subjects (Cohort 4A, 100 mg BIW) | GI AE Leading to Study Drug Discontinuation: Nausea, subjects (Cohort 4A, 100 mg BIW) | GI AE Leading to Study Drug Discontinuation: Vomiting, subjects (Cohort 4A, 100 mg BIW) | Gastrointestinal AE Haemorroids, subjects (Cohort 4A, 100 mg BIW)
3 (10.0%) n (%): TEAE Abdominal pain, Upper (Cohort 4, 200 mg BIW, N = 30) | TEAE Acute Renal Failure (Cohort 4, 200 mg BIW, N = 30) | TEAE Back Pain (Cohort 4, 200 mg BIW, N = 30) | TEAE Blood lactate dehydrogenase increased (Cohort 4, 200 mg BIW, N = 30) | TEAE Dysgeusia (Cohort 4, 200 mg BIW, N = 30) | TEAE Gamma-glutamyltransferase increased (Cohort 4, 200 mg BIW, N = 30) | TEAE Generalized oedema (Cohort 4, 200 mg BIW, N = 30) | TEAE Hyperkalemia (Cohort 4, 200 mg BIW, N = 30) | TEAE Hypocalcaemia (Cohort 4, 200 mg BIW, N = 30) | TEAE Increased leukocytosis (Cohort 4, 200 mg BIW, N = 30) | TEAE Liver function test abnormal (Cohort 4, 200 mg BIW, N = 30) | TEAE Malnutrition (Cohort 4, 200 mg BIW, N = 30) | TEAE Oedema peripheral (Cohort 4, 200 mg BIW, N = 30) | TEAE Recurrent flatulence (Cohort 4, 200 mg BIW, N = 30)
0%: Dyspepsia leading to study drug withdrawal (Cohort 4, 200 mg BIW, N = 30) | Vomiting leading to study drug withdrawal (Cohort 4, 200 mg BIW, N = 30)
possibly related: Relationship of hepatobiliary AE acute liver injury, subject 4008 (Cohort 4, drug withdrawn)
3 (6.0%): AST (any time during therapy) >5 × ULN-10 × ULN, subjects (Cohort 4A, 100 mg BIW) | Alkaline Phosphatase (any time during therapy) >2.5-5.0 × ULN, subjects (Cohort 4A, 100 mg BIW) | Gastrointestinal AE Flatulence, subjects (Cohort 4A, 100 mg BIW) | Hepatobiliary clinical AE Hyperbilirubinaemia, subjects (Cohort 4A, 100 mg BIW)
2 (4.0%): AST (any time during therapy) >3 × ULN-5 × ULN, subjects (Cohort 4A, 100 mg BIW) | GI AE Leading to Study Drug Discontinuation: Diarrhoea, subjects (Cohort 4A, 100 mg BIW) | Gastrointestinal AE Abdominal pain upper, subjects (Cohort 4A, 100 mg BIW) | Gastrointestinal AE Constipation, subjects (Cohort 4A, 100 mg BIW) | Gastrointestinal AE Retching, subjects (Cohort 4A, 100 mg BIW)
0: ALT (Screening) >20 × ULN, subjects (Cohort 4A, 100 mg BIW) | AST (Screening) >20 × ULN, subjects (Cohort 4A, 100 mg BIW) | AST (any time during therapy) >10 × ULN-20 × ULN, subjects (Cohort 4A, 100 mg BIW) | AST (any time during therapy) >20 × ULN, subjects (Cohort 4A, 100 mg BIW) | Alkaline Phosphatase (Screening) >2.5-5.0 × ULN, subjects (Cohort 4A, 100 mg BIW) | Alkaline Phosphatase (Screening) >5.0-20.0 × ULN, subjects (Cohort 4A, 100 mg BIW) | Alkaline Phosphatase (Screening) >20.0 × ULN, subjects (Cohort 4A, 100 mg BIW) | Alkaline Phosphatase (any time during therapy) >5.0-20.0 × ULN, subjects (Cohort 4A, 100 mg BIW) | Alkaline Phosphatase (any time during therapy) >20.0 × ULN, subjects (Cohort 4A, 100 mg BIW) | GI AE Leading to Study Drug Discontinuation: Dyspepsia, subjects (Cohort 4A, 100 mg BIW) | Gastrointestinal AE Abdominal distention, subjects (Cohort 4A, 100 mg BIW) | Gastrointestinal AE Diverticulum intestinal haemorragic, subjects (Cohort 4A, 100 mg BIW) | Gastrointestinal AE Dysphagia, subjects (Cohort 4A, 100 mg BIW) | Gastrointestinal AE Epigastric discomfort, subjects (Cohort 4A, 100 mg BIW) | Gastrointestinal AE GERD, subjects (Cohort 4A, 100 mg BIW) | Gastrointestinal AE Gastritis, subjects (Cohort 4A, 100 mg BIW) | Gastrointestinal AE Haematochezia, subjects (Cohort 4A, 100 mg BIW) | Gastrointestinal AE Large intestinal ulcer, subjects (Cohort 4A, 100 mg BIW) | Gastrointestinal AE Odynophagia, subjects (Cohort 4A, 100 mg BIW) | Gastrointestinal AE Oesophagitis, subjects (Cohort 4A, 100 mg BIW) | Hepatobiliary clinical AE Cholelithiasis, subjects (Cohort 4A, 100 mg BIW) | Hepatobiliary clinical AE Hepatomegaly, subjects (Cohort 4A, 100 mg BIW) | Hepatobiliary clinical AE Jaundice, subjects (Cohort 4A, 100 mg BIW) | Hepatobiliary clinical AE Liver injury, subjects (Cohort 4A, 100 mg BIW)
4 (8.0%): ALT (any time during therapy) >5 × ULN-10 × ULN, subjects (Cohort 4A, 100 mg BIW) | Gastrointestinal AE Abdominal discomfort, subjects (Cohort 4A, 100 mg BIW) | Gastrointestinal AE Dyspepsia, subjects (Cohort 4A, 100 mg BIW)
8 (17.4%): Alkaline Phosphatase (Screening) >ULN-[…] ULN, subjects (Cohort 4A, 100 mg BIW)
1 (3.3%): Nausea leading to study drug withdrawal (Cohort 4, 200 mg BIW, N = 30)
not related: Relationship of hepatobiliary AE hyperbilirubinemia, subject 4042 (Cohort 4, drug interrupted)
4 (13.3%): All AEs, Grade 5 (deaths) (Cohort 4, 200 mg BIW, N = 30, entire study duration)
1: Grade of hepatobiliary AE hyperbilirubinemia, subject 4042 (Cohort 4, drug interrupted)
8 (26.7%) n (%): TEAE Hyperglycaemia (Cohort 4, 200 mg BIW, N = 30) | TEAE Vomiting (Cohort 4, 200 mg BIW, N = 30)
22 (44.0%): Gastrointestinal AE Vomiting, subjects (Cohort 4A, 100 mg BIW)
2 (6.7%) n (%): TEAE Anxiety (Cohort 4, 200 mg BIW, N = 30) | TEAE Creatinine increased (Cohort 4, 200 mg BIW, N = 30) | TEAE GI Reflux Disease (Cohort 4, 200 mg BIW, N = 30) | TEAE Hyponatraemia (Cohort 4, 200 mg BIW, N = 30) | TEAE Insomnia (Cohort 4, 200 mg BIW, N = 30) | TEAE Pyrexia (Cohort 4, 200 mg BIW, N = 30) | TEAE Tremor (Cohort 4, 200 mg BIW, N = 30)
5 (16.7%) n (%): TEAE Cytomegalovirus viremia (Cohort 4, 200 mg BIW, N = 30) | TEAE Decreased appetite (Cohort 4, 200 mg BIW, N = 30) | TEAE Hyperbilirubinaemia (Cohort 4, 200 mg BIW, N = 30) | TEAE Hypokalaemia (Cohort 4, 200 mg BIW, N = 30) | TEAE Thrombocytopenia (Cohort 4, 200 mg BIW, N = 30)
1 subject(s): subjects discontinued due to neutropenia (Cohort 4A)
17 (34.0%): Gastrointestinal AE Nausea, subjects (Cohort 4A, 100 mg BIW)
10 (20.0%): ALT (any time during therapy) >3 × ULN-5 × ULN, subjects (Cohort 4A, 100 mg BIW)
23 (76.7%) n (%): Subjects who permanently discontinued treatment [1]
7 (23.3%) n (%): TEAE AST increased (Cohort 4, 200 mg BIW, N = 30) | Subjects completed treatment [1]
21 (70.0%) n (%): TEAE Diarrhoea (Cohort 4, 200 mg BIW, N = 30)
0 n (%): TEAE Acute Myeloid Leukemia recurrent (Cohort 4, 200 mg BIW, N = 30) | TEAE Fatigue (Cohort 4, 200 mg BIW, N = 30) | TEAE Renal Failure (Cohort 4, 200 mg BIW, N = 30)
26 (52.0%): Gastrointestinal AE Diarrhoea, subjects (Cohort 4A, 100 mg BIW)
24 (80.0%) n (%): TEAE Acute GVHD (Cohort 4, 200 mg BIW, N = 30)
11 (36.7%) n (%): TEAE Abdominal pain (Cohort 4, 200 mg BIW, N = 30) | TEAE Nausea (Cohort 4, 200 mg BIW, N = 30)
11 (22.0%): Alkaline Phosphatase (any time during therapy) >ULN-[…] ULN, subjects (Cohort 4A, 100 mg BIW)
13 (26.0%): Gastrointestinal AE Abdominal pain, subjects (Cohort 4A, 100 mg BIW)
10 (33.3%) n (%): TEAE ALT increased (Cohort 4, 200 mg BIW, N = 30)
